Source: ChEMBL document CHEMBL1201862, “PubChem BioAssay data set” (2004)
Calls of active or inactive are those of the source.

Assays:
[1] = biological target: Leucine-rich repeat serine/threonine-protein kinase 2 (Homo sapiens, UniProt Q5S007); format: functional;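 note: value from a broad kinome-wide panel profiling study in which LRRK2 was one of the kinases tested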
[2] = biological target: Mitogen-activated protein kinase kinase kinase kinase 4 (Homo sapiens, UniProt O95819); format: functional
[3] = biological target: BDNF/NT-3 growth factors receptor (Homo sapiens, UniProt Q16620); format: functional;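 note: NTRK2 measured as one member of a broad kinome-wide kinase profiling panel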
[4] = biological target: Inhibitor of nuclear factor kappa-B kinase subunit epsilon (Homo sapiens, UniProt Q14164); experiment: Navigating the Kinome. Panel member name: IKBKE; format: functional
[5] = biological target: Tyrosine-protein kinase Lck (Homo sapiens, UniProt P06239); format: functional;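 note: lck was assayed as one member of a kinase panel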
[6] = biological target: Mitogen-activated protein kinase kinase kinase kinase 2 (Homo sapiens, UniProt Q12851); format: functional;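 note: measured as one member of a kinome-wide kinase panel, with MAP4K2 as the panel entry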
LIM domain kinase 1 = LIM domain kinase 1 (Homo sapiens, UniProt P53667); experiment: Navigating the Kinome. Panel member name: LIMK1; format: functional
ORF 73 = biological target: T1, ORF 73 (Human herpesvirus 8, UniProt O40947); experiment: KSHV LANA DNA-binding disruption – biochemical, fluorescence polarization, cherry-picked samples, dose response (AID 504725); set-up: species or system Human gammaherpesvirus 8;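 note: fluorescence polarization of a labeled DNA duplex reporting LANA DNA binding; potency is for inhibitors that block LANA binding to the DNA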
T1 sequence (O40947 whole entry): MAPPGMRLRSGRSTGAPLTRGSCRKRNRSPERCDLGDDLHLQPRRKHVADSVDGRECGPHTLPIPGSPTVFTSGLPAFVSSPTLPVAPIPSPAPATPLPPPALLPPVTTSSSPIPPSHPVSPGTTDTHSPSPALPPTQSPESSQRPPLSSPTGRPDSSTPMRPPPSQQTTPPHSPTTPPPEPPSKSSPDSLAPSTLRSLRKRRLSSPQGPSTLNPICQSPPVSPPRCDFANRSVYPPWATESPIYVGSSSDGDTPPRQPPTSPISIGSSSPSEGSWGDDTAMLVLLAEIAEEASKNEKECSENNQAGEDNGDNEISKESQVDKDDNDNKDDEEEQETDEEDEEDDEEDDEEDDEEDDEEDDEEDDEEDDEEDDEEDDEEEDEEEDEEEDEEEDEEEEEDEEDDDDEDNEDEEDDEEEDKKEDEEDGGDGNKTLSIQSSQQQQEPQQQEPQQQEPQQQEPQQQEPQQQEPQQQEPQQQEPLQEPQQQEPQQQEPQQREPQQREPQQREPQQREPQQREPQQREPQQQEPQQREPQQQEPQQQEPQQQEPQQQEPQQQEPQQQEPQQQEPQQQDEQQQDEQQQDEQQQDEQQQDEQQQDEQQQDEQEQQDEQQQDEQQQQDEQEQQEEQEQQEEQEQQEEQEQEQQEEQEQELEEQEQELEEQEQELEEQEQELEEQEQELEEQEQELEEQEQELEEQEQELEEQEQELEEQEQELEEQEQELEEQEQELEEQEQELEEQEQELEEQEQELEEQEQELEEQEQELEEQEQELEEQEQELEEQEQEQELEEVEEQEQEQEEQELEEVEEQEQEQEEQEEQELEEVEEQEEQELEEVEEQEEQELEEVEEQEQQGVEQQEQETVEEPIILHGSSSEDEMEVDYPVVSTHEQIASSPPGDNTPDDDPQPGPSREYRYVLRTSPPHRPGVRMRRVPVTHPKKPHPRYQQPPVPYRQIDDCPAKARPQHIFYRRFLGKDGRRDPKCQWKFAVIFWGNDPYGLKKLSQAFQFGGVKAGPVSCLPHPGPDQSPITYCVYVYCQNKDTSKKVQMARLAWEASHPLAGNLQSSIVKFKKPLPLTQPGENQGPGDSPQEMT

[7] = biological target: T2, Dual specificity protein phosphatase 6 (Rattus norvegicus, UniProt Q64346); experiment: inhibition of rat DUSP6 enzyme activity – biochemical, in vitro, primary screen (AID 425)
T2 sequence (Q64346 whole entry): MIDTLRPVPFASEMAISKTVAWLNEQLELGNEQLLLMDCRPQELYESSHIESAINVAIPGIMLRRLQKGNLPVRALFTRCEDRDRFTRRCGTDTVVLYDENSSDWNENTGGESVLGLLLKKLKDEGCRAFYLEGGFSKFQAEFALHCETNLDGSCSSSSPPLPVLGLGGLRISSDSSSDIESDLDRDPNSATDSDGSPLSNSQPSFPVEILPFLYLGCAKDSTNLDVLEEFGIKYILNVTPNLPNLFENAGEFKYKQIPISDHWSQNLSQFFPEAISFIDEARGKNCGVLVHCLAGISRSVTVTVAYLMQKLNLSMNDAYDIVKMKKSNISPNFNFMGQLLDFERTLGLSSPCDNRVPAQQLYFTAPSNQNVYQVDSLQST

[8] = biological target: Dual specificity protein phosphatase 3 (Homo sapiens, UniProt P51452); experiment: VHR1 phosphatase inhibitors, biochemical (AID 1878)
[9] = biological target: T3, Sentrin-specific protease 7 (Homo sapiens, UniProt Q9BQF6); format: functional;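 note: Luminescence-based dose-response confirmation of ultra-high-throughput screening hits, measuring inhibition of SENP7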
T3 sequence (Q9BQF6 whole entry): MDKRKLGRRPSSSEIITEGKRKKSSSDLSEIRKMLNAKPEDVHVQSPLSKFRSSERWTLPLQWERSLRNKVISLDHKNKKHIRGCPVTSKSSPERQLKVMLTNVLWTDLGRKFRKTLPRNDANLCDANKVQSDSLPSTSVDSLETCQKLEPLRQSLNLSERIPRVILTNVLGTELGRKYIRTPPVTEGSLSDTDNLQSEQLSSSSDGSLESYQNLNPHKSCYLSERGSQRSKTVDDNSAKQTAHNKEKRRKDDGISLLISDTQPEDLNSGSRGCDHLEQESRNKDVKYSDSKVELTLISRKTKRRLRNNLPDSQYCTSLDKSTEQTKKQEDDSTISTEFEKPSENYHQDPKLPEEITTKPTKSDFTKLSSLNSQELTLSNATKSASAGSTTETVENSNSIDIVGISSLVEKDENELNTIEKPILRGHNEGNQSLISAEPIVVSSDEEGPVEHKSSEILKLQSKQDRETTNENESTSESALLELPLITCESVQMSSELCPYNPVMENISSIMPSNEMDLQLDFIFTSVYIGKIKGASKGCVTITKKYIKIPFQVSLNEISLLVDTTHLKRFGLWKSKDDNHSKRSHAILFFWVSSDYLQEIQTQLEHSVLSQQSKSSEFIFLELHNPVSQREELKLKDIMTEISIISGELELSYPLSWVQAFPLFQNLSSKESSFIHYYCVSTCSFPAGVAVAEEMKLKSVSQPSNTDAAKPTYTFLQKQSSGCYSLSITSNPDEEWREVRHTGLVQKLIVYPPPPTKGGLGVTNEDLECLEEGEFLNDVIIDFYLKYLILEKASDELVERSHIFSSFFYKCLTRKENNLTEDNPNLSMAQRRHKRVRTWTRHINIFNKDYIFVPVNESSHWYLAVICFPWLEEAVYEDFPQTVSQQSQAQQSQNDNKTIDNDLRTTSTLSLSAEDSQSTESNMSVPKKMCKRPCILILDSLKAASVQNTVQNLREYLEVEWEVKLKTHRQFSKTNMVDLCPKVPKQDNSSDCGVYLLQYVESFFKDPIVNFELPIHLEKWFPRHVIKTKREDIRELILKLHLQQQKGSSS

Sequence of Leucine-rich repeat serine/threonine-protein kinase 2 (Q5S007 whole entry): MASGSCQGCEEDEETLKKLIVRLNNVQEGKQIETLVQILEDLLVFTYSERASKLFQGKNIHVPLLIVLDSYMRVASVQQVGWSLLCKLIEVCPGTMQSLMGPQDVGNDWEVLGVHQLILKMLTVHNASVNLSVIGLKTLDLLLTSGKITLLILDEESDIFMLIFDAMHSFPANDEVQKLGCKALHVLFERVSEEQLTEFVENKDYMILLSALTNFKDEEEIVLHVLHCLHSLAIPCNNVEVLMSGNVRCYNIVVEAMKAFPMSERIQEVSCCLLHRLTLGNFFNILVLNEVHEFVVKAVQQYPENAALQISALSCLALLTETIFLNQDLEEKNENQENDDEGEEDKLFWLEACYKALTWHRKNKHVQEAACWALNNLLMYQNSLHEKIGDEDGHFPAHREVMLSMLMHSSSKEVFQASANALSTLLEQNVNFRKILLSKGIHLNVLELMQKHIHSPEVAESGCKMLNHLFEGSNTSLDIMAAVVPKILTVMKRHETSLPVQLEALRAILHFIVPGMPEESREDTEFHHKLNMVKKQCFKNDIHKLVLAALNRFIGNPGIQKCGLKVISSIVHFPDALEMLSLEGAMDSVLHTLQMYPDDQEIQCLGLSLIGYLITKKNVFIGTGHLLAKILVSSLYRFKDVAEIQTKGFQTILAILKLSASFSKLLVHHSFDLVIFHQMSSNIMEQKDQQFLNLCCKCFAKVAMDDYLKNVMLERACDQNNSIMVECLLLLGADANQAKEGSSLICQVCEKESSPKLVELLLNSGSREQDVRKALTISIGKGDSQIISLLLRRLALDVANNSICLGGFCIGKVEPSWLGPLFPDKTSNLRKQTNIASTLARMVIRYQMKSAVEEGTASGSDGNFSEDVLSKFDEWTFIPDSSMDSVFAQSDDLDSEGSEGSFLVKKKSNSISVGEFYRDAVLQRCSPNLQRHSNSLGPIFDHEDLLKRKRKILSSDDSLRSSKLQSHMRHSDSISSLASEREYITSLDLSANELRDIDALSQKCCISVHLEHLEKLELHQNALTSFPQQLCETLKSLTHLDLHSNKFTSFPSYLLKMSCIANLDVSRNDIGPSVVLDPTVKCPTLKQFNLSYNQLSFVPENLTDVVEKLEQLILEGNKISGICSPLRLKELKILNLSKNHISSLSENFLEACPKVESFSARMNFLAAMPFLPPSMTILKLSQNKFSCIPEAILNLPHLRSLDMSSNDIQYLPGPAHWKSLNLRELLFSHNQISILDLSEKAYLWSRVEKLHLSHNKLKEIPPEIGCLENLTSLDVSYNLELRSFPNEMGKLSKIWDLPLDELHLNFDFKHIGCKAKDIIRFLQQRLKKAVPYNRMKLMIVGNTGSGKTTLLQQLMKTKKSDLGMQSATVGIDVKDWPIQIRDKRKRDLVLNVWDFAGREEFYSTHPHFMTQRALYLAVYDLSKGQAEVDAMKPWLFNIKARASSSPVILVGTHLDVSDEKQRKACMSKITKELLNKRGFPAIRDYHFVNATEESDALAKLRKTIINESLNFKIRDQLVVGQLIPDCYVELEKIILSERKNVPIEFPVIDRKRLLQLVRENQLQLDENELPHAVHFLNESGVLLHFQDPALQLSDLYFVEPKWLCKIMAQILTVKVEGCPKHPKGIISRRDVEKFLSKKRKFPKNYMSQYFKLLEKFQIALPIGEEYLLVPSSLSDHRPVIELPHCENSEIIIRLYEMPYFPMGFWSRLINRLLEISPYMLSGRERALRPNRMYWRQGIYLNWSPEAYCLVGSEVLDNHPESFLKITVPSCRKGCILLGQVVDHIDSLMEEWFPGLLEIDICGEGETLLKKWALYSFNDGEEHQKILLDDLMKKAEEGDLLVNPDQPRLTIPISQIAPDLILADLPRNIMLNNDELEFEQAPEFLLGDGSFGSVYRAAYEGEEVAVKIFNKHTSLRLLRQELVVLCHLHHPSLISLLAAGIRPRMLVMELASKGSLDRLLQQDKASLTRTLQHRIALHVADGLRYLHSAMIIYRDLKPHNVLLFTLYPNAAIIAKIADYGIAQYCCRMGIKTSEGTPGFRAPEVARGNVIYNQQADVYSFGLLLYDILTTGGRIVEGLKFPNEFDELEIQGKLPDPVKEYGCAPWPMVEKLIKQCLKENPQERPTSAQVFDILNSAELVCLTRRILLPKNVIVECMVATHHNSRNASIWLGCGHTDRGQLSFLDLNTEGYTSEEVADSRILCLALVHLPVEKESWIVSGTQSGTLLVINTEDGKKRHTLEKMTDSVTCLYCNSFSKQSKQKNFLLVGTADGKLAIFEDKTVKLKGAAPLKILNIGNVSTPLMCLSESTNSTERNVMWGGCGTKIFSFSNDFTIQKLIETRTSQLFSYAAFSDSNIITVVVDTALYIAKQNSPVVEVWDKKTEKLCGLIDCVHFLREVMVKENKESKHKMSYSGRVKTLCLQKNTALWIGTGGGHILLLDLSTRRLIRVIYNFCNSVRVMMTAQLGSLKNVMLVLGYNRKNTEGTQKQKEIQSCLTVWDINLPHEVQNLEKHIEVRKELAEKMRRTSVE
Sequence of Mitogen-activated protein kinase kinase kinase kinase 2 (Q12851 whole entry, the tested form may be a part): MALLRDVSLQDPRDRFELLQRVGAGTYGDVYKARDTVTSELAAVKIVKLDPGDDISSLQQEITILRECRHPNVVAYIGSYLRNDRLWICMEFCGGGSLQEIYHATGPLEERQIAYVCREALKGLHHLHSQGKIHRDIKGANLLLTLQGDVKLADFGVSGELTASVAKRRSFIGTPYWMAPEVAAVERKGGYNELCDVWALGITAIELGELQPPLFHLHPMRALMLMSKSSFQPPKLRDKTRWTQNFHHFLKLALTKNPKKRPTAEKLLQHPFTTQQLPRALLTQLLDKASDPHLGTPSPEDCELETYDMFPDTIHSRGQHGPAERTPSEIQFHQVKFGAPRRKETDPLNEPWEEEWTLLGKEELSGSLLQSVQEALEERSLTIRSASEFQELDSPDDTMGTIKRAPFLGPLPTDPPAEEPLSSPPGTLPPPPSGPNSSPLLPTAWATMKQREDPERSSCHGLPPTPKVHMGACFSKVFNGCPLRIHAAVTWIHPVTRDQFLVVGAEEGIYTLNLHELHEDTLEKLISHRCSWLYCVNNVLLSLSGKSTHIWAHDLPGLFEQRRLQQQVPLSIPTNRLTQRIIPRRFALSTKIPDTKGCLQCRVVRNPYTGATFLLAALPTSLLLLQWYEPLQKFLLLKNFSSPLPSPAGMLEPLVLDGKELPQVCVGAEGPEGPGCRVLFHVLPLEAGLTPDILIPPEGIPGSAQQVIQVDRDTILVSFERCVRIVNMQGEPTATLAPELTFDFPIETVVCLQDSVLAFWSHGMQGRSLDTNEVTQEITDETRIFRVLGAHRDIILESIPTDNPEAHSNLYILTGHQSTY
Sequence of Mitogen-activated protein kinase kinase kinase kinase 4 (O95819 whole entry): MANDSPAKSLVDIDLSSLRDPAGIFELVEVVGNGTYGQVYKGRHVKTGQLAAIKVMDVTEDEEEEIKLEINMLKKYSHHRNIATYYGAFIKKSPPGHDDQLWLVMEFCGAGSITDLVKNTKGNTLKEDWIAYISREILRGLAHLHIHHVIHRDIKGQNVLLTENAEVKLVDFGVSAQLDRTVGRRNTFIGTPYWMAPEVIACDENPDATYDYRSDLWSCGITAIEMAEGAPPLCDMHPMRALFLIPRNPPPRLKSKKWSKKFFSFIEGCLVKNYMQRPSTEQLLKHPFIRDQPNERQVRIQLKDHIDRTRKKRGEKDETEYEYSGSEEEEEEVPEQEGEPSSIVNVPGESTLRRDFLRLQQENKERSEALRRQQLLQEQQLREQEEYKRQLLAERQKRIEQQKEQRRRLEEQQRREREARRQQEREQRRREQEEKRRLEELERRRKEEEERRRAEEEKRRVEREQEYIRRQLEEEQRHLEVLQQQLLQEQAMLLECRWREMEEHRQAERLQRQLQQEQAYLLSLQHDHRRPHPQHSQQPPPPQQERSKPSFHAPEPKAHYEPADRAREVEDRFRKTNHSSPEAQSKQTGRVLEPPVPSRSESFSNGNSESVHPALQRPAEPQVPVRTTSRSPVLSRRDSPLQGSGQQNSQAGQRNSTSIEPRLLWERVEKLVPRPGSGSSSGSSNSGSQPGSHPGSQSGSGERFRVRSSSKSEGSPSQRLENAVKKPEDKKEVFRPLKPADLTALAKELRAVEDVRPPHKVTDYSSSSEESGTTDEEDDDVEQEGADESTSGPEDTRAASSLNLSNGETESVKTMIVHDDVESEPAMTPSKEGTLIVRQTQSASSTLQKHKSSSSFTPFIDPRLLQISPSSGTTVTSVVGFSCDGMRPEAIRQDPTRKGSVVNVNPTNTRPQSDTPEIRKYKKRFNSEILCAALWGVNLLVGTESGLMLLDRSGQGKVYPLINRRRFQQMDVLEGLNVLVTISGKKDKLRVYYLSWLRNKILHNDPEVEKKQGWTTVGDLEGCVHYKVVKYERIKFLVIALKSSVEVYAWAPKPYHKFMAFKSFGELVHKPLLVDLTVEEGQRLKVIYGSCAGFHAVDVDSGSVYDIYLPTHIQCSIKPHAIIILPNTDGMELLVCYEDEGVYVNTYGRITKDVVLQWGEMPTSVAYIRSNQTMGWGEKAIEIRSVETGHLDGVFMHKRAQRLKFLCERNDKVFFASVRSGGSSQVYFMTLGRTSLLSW
Sequence of Dual specificity protein phosphatase 3 (P51452 whole entry): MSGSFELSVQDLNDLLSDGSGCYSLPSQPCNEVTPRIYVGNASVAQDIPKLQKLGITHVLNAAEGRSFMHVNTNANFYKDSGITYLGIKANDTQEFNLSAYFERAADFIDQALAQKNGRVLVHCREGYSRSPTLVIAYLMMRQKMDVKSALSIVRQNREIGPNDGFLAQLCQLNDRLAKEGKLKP

O=C(Cc1cccs1)Nc1nc2ccccc2s1
Ki [1]: 0.794 µM (active)
Ki [2]: > 5.01 µM (inactive)
Ki [3]: > 3.98 µM (inactive)
Ki [4]: > 3.16 µM (inactive)
Ki [5]: > 6.31 µM (inactive)
Ki [6]: 2 µM (active)
Ki (LIM domain kinase 1): 0.158 µM (active)

O=S(=O)(O)c1cccc2c(N=Nc3ccc(O)c4ncccc34)cccc12
AC50 (ORF 73): 64.1 µM (active)
IC50 [7]: 71.5 µM (active)
IC50 [8]: 1.7 µM (active)

O=C(NNc1cc(N2CCCC2)nc(N2CCCC2)n1)c1ccc([N+](=O)[O-])cc1
IC50 [9]: 2.55 µM (active)
